Results taken from patent US9138433B2, “Indole alkaloid compounds as melanogenesis promoters and uses thereof” (NEW YORK UNIVERSITY, priority 2010, dated 2015).

How the values were obtained:
[1] = tested on: melan-a cells; assay: Melanin assay in cultured murine melanocytes (melan-a); assay type: cell-based; details: melanin content, 72 hours incubation
Description: The Spectrum Collection library consisting of 2000 drug compounds or natural products was screened to identify novel pigmentation inhibitors or stimulators in cultured murine melanocytes (melan-a). Compounds were dissolved in dimethylsulfoxide (DMSO) to a final concentration of 10 mM. Screening was performed with cultured melanocytes in 24-well plates followed by melanin assay (see below). A minimum change of 50% in melanin formation was established as significant for a pigmentation inhibitor or stimulator. DMSO was used as a negative control and the widely used depigmenting agent, hydroquinone, was used as a positive control on every plate. Primary screening was performed at a final concentration of 1 μM and potential candidates from the primary screening were reconfirmed in duplicate at final concentrations of 1 and 5 μM.
Melan-a cells were plated at 5×10^4 cells per well in 1 ml of culture media in 24-well plates the day before adding the library compounds. All compounds were added at the indicated final concentrations. Cells were harvested after 72 hours of incubation, and melanin assay was performed.
For further test and mechanism of action studies, the compounds were purchased from either Sigma or MicroSource. These compounds were dissolved in dimethylsulfoxide (DMSO) to a final concentration of 10 mM, and were tested for their effect on melanin synthesis at the indicated final concentrations.
For the primary and secondary screening, cells were harvested and dissolved in 200 μl of 2N NaOH in 20% DMSO at 70° C. A 180-μl aliquot of the resulting solution was measured for absorbance at 490 nm.
Cells are harvested in extraction buffer (1% Triton X-100, 50 mM Tris, 2 mM EDTA, 150 mM NaCl, pH 7.5) containing a complete protease inhibitor cocktail (Roche). The lysates were centrifuged at 14,000 rpm for 10 minutes at 4° C. BCA protein assay kit (Pierce) was used to measure the protein concentrations of the supernatants, and bovine serum albumin was used as a standard. The remaining pellets were incubated with 100 μl ethanol-ether (1:1) for 10 minutes at room temperature. After removing the ethanol-ether, the pellets were dissolved in 200 μl of 2N NaOH in 20% DMSO at 70° C. A 180-μl aliquot of the resulting solution was measured for absorbance at 490 nm. The melanin contents were normalized to the total amount of protein.

[2] = tested on: Tyr, Tryp-1 or Lamp-1 in melan-a cells; assay: Sub-cellular localization of Tyr, Tyrp-1, Lamp-1 in melan-a cells (immunofluorescence); assay type: cell-based, murine; details: 10 μM, 72 hrs at 37° C., FIGS. 4A and 4B
Description: Cells were cultured on cover slips, incubated with or without 10 μM pubescine for 72 hrs at 37° C. The cells were fixed with −20° C. methanol for 5 min and stained by immunofluorescence with antibodies for Tyr, Tyrp-1 and/or Lamp-1. The slides were analyzed with a confocal microscope (LSM 510, Zeiss).

[3] = tested on: Asian skin equivalent (MEL-A); assay: MelanoDerm pigmentation assay, Asian skin equivalent (MEL-A); assay type: cell-based, human
Description: MelanoDerm™, made by MatTek Corp., is a viable reconstituted three-dimensional human skin equivalent containing normal melanocytes and keratinocytes that are derived from African-American (MEL-B), Asian (MEL-A) or Caucasian (MEL-C) donors. Both MEL-A and MEL-B tissues were used in the current study, and they were maintained in the NMM-113 medium as recommended by the manufacturer.
Pubescine (from Sigma) was dissolved in 30% ethanol: 70% propylene glycol to a final concentration of 1.0 mM (equal to 356.6 μg/ml), and this was maintained constant and used on all samples tested. A 25 μl of its aliquot was applied topically to the MelanoDerm™ tissue (MEL-B) on Days 0, 1, 3, 6, 8 and 10. The MelanoDerm™ tissues were fed every other day with 5 ml fresh NMM-113. Prior to each application, the tissues were washed with 1 ml PBS to remove any residual test compound. Tissues were fixed on Days 10 and 13 for microscopic analysis and histological evaluation. In addition, duplicate tissues were frozen on Days 10 and 13 for the melanin assay.
Similar experiments were performed on Asian skin equivalent (MEL-A) except: the treatments were applied on Days 0, 1, 3, 6, 8, 10 and 13. Tissues were taken out on Days 13 and 16 for the various assays. […]
Procedure 1: the effects of pubescine on melanin synthesis in MEL-A or B were evaluated by light microscopy (views from the top surface of the tissue). […]

[4] = tested on: Tyr gene family proteins and gp100 in melan-a cells; assay: Cellular levels of Tyr gene family proteins and gp100 in melan-a cells (immunoblot); assay type: cell-based, murine; details: various concentrations, 72 hrs, FIG. 3
Description: Melan-a cells were incubated with various concentrations of pubescine for 72 hrs. Cell lysates were prepared and separated by 7.5% sodium dodecyl sulfate-polyacrylamide gel and transferred to Immobilon-P membranes. Tyrosinase gene family proteins were detected with antibodies against each protein. The results are set forth in the gel of FIG. 3.

Structure (SMILES) | % after treatment @ 1 μM [1] [%] | % after treatment @ 5 μM [1] [%] | Sub-cellular localization of Tyr, Tryp-1 or Lamp-1 [2] | Fontana-Masson staining, melanin content ([3]; Asian skin equivalent (MEL-A), FIG. 6) | Melanin content increase of Asian skin equivalent (MEL-A) ([3]; pubescine 1.0 mM topical, 25 μl, FIG. 7) [%] | Cellular levels of tyrosinase family proteins and gp100 [4]
COC(=O)C1=CO[C@@H](C)[C@H]2CN3CCc4c([nH]c5ccccc45)[C@@H]3C[C@H]12 [ID 3, Ajmalicine, reference compound] | 106 | 133 |  |  |  | 
COC(=O)C1=CO[C@@H](C)[C@H]2CN3CCc4c([nH]c5cc(OC)ccc45)[C@@H]3C[C@H]12 [ID 6, Pubescine] | 172 | 267 | does not alter the sub-cellular localization | increase in the melanin content | ~40 | increases cellular levels of tyrosinase family proteins and gp100 in a dose-dependent manner
COC(=O)[C@H]1[C@H]2C[C@H]3c4[nH]c5ccccc5c4CCN3C[C@@H]2CC[C@@H]1O [ID 1, Corynanthine] | 111 | 211 |  |  |  | 
COc1ccc2c3c([nH]c2c1)[C@@H]1C[C@H]2[C@@H](C[C@@H](O)[C@H](OC)[C@H]2C(=O)O)CN1CC3 [ID 5, Reserpic Acid] | 111 | 217 |  |  |  | 
CC[C@H]1[C@@H]2C[C@H]3[C@@H]4N(C)c5ccccc5[C@]45C[C@@H]([C@H]2[C@H]5O)N3[C@@H]1O [ID 2, Ajmaline, reference compound] | 117 | 206 |  |  |  | 
COC(=O)[C@H]1[C@H]2C[C@@H]3c4[nH]c5cc(OC)ccc5c4CCN3C[C@H]2C[C@@H](OC(=O)c2cc(OC)c(OC)c(OC)c2)[C@@H]1OC [ID 4, Reserpine, reference compound] | 117 | 133 |  |  |  | 
